Data from ChEMBL document CHEMBL1201862, “PubChem BioAssay data set” (2004).
The source made the active and inactive calls.

Legend:
[1] = target: T1, Corticotropin-releasing factor receptor 2/Corticotropin-releasing factor-binding protein (Homo sapiens, UniProt P24387+Q13324); test: Dose Response confirmation of uHTS hits for small molecule antagonists of the CRF-binding protein and CRF-R2 receptor complex.; assay type: functional; conditions: read-out: IC50_Mean
T1 sequence (Q13324 whole entry): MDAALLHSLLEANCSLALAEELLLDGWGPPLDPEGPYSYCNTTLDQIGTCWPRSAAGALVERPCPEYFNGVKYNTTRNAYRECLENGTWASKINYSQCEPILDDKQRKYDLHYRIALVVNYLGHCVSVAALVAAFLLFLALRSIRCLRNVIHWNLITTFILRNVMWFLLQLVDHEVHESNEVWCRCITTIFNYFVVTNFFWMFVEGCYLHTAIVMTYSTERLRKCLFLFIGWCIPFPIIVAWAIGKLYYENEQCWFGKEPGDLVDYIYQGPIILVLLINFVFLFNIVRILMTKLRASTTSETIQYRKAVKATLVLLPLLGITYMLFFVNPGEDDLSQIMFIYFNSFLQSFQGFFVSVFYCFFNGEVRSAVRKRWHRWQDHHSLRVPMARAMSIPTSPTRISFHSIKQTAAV
T1 sequence (P24387 whole entry): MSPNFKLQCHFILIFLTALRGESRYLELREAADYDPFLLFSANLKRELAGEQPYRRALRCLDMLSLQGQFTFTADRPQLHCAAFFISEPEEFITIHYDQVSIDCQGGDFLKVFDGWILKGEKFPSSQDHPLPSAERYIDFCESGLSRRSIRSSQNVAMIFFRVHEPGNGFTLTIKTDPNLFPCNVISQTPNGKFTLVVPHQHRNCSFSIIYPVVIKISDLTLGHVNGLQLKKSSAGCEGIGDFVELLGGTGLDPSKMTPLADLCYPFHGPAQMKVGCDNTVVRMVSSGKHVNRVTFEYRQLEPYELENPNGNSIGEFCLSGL

[2] = target: T1, Corticotropin-releasing factor receptor 2/Corticotropin-releasing factor-binding protein; test: activators of CRF receptor 2 with binding protein – uHTS hits, confirmation (AID 602473); assay type: functional; conditions: read-out: EC50_Mean
[3] = target: Luciferin 4-monooxygenase (Photinus pyralis, UniProt P08659); test: inhibition of purified Photinus pyralis luciferase – biochemical, luminescence, dose response (AID 1891)
Sequence of Luciferin 4-monooxygenase (P08659 whole entry): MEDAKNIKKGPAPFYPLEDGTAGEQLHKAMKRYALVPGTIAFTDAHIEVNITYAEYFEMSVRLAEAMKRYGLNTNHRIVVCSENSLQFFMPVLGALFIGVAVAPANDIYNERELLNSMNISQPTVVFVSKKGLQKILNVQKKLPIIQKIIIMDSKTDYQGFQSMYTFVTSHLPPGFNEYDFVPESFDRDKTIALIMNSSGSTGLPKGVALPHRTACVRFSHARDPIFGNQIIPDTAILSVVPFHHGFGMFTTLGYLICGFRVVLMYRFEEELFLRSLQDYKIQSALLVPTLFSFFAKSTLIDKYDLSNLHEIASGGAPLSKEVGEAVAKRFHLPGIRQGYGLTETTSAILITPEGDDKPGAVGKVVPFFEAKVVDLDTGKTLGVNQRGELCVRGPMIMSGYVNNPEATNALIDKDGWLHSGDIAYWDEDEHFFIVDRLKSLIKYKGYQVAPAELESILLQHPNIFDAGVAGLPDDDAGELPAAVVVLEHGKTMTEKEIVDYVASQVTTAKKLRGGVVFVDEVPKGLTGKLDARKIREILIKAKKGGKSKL

[4] = Luminescence Cell-Based Dose Confirmation HTS to Identify Inhibitors of Platelet Dense Granule Release. [Related pubchem assays: 1663 (Primary HTS), 1678 (Summary of Project)]; assay type: functional
[5] = viability of PTEN-deleted HCT116 cells – cell-based, HCT116 PTEN knockout, dose response (AID 1047); assay type: functional;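 also: HCT116 colon tumor cells with PTEN knocked out; cells exposed to compound for 60 hours before readout; potency for loss of cell viability measured by luminescence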
[6] = viability of HCT116 lacking mutant beta-catenin – cell-based, human colon tumor, dose response (AID 1045); assay type: functional;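 also: HCT116 colon tumor cells with beta catenin knocked out; cells exposed to compound for 60 hours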
cells = assay type: functional
[7] = NIH3T3 cell viability loss – ATP luminescence, mouse fibroblasts, counter-screen, dose response (AID 2010); assay type: functional, cell-based;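 also: cells exposed to compound for about 90 hours before reading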
[8] = Trypanosoma cruzi growth suppression in host cells – NIH3T3 host cells, beta-gal luminescence, confirmation (AID 2044); assay type: functional, cell-based;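 also: intracellular parasites grown in NIH/3T3 mouse fibroblasts as host cells; luminescent beta-galactosidase reporter signal from transgenic T. cruzi replicating inside host cells; inhibitors lower the luminescence signal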
[9] = target: T2, Heat shock factor protein 1 (Mus musculus, UniProt P38532); test: decrease of HSF1-responsive luciferase luminescence – cell-based, NIH3T3, dose retest, confirmation (AID 2382); assay type: functional;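 also: NIH3T3 fibroblasts with HSF1-driven luciferase reporter stressed by proteasome inhibitor MG132; luminescence from HSF1-driven luciferase expression after 8 hours of MG132 stress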
T2 sequence (P38532 whole entry): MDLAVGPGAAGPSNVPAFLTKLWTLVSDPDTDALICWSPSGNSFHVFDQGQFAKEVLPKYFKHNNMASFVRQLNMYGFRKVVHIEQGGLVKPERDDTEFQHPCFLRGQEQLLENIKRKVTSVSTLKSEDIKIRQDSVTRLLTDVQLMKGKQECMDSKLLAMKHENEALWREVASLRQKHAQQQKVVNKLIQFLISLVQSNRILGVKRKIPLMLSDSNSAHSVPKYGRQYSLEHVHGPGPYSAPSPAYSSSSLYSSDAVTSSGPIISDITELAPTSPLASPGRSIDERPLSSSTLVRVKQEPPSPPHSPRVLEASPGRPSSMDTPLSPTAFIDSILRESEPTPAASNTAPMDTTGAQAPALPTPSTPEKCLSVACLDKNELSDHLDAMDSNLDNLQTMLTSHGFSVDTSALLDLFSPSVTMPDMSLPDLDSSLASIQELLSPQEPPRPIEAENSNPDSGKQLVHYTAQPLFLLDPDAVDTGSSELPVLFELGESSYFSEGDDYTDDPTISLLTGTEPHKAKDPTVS

[10] = viability of uninfected HEp-2 cells – cell-based, HTS, cytotoxicity control for RSV inhibitor project, dose response (AID 2410); assay type: functional; conditions: human respiratory syncytial virus
H9c2 = test: cells; assay type: functional, cell-based; conditions: Rattus norvegicus, H9c2, Myocardium;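 also: confirmatory concentration-response retest of ultra-high-throughput screening hits for modulation of myocardial damage; cell death induced by hydrogen peroxide oxidative stress; compound pretreatment for 60 min then peroxide exposure for 2 h; potency is for protecting the cells against peroxide damage rather than for killing them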
Cytochrome P450 2D6 = Cytochrome P450 2D6 (Homo sapiens, UniProt P10635);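 also: CYP2D6 member of a cytochrome P450 panel assay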
Sequence of Cytochrome P450 2D6 (P10635 whole entry): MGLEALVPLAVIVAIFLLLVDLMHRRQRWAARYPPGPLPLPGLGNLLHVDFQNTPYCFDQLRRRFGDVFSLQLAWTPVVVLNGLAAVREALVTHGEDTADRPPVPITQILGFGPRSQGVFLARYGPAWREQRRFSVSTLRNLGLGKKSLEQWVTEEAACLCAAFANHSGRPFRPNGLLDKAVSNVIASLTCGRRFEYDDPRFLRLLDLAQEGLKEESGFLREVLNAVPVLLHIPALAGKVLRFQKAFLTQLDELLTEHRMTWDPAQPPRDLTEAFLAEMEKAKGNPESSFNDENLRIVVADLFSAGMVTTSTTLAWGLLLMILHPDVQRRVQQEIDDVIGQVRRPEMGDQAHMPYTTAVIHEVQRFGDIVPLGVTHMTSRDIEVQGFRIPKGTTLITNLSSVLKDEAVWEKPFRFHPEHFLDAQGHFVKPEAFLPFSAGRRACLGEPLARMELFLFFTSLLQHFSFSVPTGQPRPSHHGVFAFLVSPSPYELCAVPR

| Compound | IC50 [1] | EC50 [2] | EC50 [3] | EC50 [4] | further results |
| --- | --- | --- | --- | --- | --- |
| Cc1noc(C)c1S(=O)(=O)N1CCC(C(=O)N2CCN(c3ccc(F)cc3)CC2)CC1 | > 47.1 µM (inactive) | > 53 µM (inactive) |  |  |  |
| COc1ccc(C(=O)Nc2sc(C)c(C)c2CN2CCOCC2)cc1 |  |  | > 112 µM (not active) | 12.6 µM (active) |  |
| CCN(CC)C(=O)CSc1ncnc2c(-c3ccc(OC)cc3)nsc12 |  |  | > 112 µM (not active) | > 112 µM (not active) |  |
| CCCCc1ccc(C2C3=C(CC(C)(C)CC3=O)N=C3C2=C(O)c2ccccc23)cc1 (stereo unspecified) |  |  |  |  | EC50 [5]: 13.2 µM (active); EC50 [6]: 18.2 µM (active) |
| COc1ccc(-c2nnc(NC(=O)C3=COCCO3)o2)cc1 |  |  |  |  | IC50 (cells): 8.62 µM (active) |
| O=C(Nc1cnn(Cc2c(Cl)cccc2Cl)c1)C(c1ccccc1)c1ccccc1 |  |  | > 112 µM (not active) | > 112 µM (not active) | EC50 [7]: > 60 µM (not active); EC50 [8]: 2.06 µM (active) |
| COc1cccc(N2CCN(Cc3cccc(Cl)c3)CC2)c1 |  |  | > 112 µM (not active) | > 112 µM (not active) |  |
| COc1ccc(C(C)=O)cc1CSc1nnc2c(Cl)cc(Cl)cn12 | > 47.1 µM (inactive) | > 53 µM (inactive) |  |  |  |
| CCOc1ccc(-c2cc(C(=O)NCC3CCCO3)c3ccccc3n2)cc1 (stereo unspecified) |  |  | 47.2 µM (active) | > 112 µM (not active) |  |
| O=C(Nc1ccccc1N1CCCCC1)C1CCN(C(=O)c2ccc(Cl)cc2)CC1 | > 47.1 µM (inactive) | > 53 µM (inactive) |  |  | EC50 [9]: > 195 µM (not active) |
| O=C(COc1ccccc1F)N1CCN(CCN2C(=O)c3cccc4cccc(c34)C2=O)CC1 | > 47.1 µM (inactive) | > 53 µM (inactive) |  |  |  |
| Cn1c(=O)oc2cc(S(=O)(=O)N3CCN(c4cccc(Cl)c4)CC3)ccc21 |  |  | > 112 µM (not active) | > 112 µM (not active) |  |
| C#CCN1C(=O)C(O)(CC(=O)c2ccc(OC)c(OC)c2)c2ccccc21 (stereo unspecified) |  |  |  |  | EC50 [5]: 18 µM (active); EC50 [6]: 21.2 µM (active) |
| COc1ccc(-c2cc(C(F)(F)F)c(C#N)c(SCC(=O)Nc3nc(C)co3)n2)cc1 |  |  |  |  | EC50 [5]: 10.9 µM (active); EC50 [6]: 9.24 µM (active) |
| CC(C)c1ccc(NC(=S)NN2CCOCC2)cc1 | > 47.1 µM (inactive) | > 53 µM (inactive) |  |  |  |
| Cc1ccccc1CNC(=O)Nc1cccs1 | > 47.1 µM (inactive) | > 53 µM (inactive) |  |  |  |
| Cc1ccc(CNC(=O)CN(c2ccc(C)cc2)S(=O)(=O)c2c(C)nn(C)c2C)cc1 | > 47.1 µM (inactive) | > 53 µM (inactive) |  |  |  |
| Cc1ccc(S(=O)(=O)CCC(=O)Nc2cc(Cl)ccc2-n2cncn2)cc1 | > 47.1 µM (inactive) | > 53 µM (inactive) |  |  |  |
| Cc1ccc(-n2nc3ccc(NC(=O)/C=C/c4ccco4)cc3n2)cc1C |  |  |  |  | EC50 [5]: 8.83 µM (active); EC50 [6]: 11.7 µM (active) |
| CC(=O)N1N=C(C)CC1c1ccc(OCc2ccccc2)cc1 (stereo unspecified) | > 47.1 µM (inactive) | > 53 µM (inactive) |  |  |  |
| COc1cccc(-c2nn(-c3ccccc3)cc2C(=O)O)c1 |  |  | > 112 µM (not active) | > 112 µM (not active) |  |
| Cn1c(=O)oc2cc(S(=O)(=O)NCCC(=O)NCc3ccc(F)cc3)ccc21 | > 47.1 µM (inactive) | > 53 µM (inactive) |  |  |  |
| C=CCn1c(SCc2ccc(F)cc2)nc2c1c(=O)[nH]c(=O)n2C | > 47.1 µM (inactive) | > 53 µM (inactive) |  |  |  |
| CC(C)c1nnc(NC(=O)CCC(=O)N2CCN(c3ccc(F)cc3)CC2)s1 |  |  | > 112 µM (not active) | > 112 µM (not active) |  |
| Cc1ccc(-c2nn(C)c(=O)c3ccccc23)cc1CO | > 47.1 µM (inactive) | > 53 µM (inactive) |  |  |  |

| Compound | IC50 [1] | EC50 [2] | EC50 [3] | EC50 [4] | further results |
| --- | --- | --- | --- | --- | --- |
| CCOC(=O)c1c(C)c(-c2ccccc2)n(CC(=O)N2CCCC2)c1C |  |  | > 112 µM (not active) | > 112 µM (not active) |  |
| O=C(CN1CCN(C(=O)c2ccco2)CC1)Nc1c2c(nc3c1CCC3)CCCC2 | > 47.1 µM (inactive) | > 53 µM (inactive) |  |  |  |
| Cc1nnc(SCC(=O)N(C)c2c(N)n(Cc3ccccc3)c(=O)[nH]c2=O)n1Cc1ccccc1 | > 47.1 µM (inactive) | > 53 µM (inactive) |  |  |  |
| Cc1nc2cc(N3CCCCC3)c(NC(=O)c3ccncc3)cc2c(=O)n1Cc1ccc(Cl)cc1 |  |  |  |  | EC50 [5]: 3.49 µM (active); EC50 [6]: 3.8 µM (active) |
| COc1cc(/C=C(\C#N)c2nc3ccccc3[nH]2)cc(Br)c1OCc1ccccc1 |  |  |  |  | EC50 [5]: 15.8 µM (active); EC50 [6]: 16.7 µM (active) |
| CCOC(=O)C(C)Oc1cccc2c(=O)n(CC(=O)NCCc3ccc(OC)c(OC)c3)ccc12 (stereo unspecified) |  |  | > 112 µM (not active) | > 112 µM (not active) |  |
| COc1ccccc1CNC(=O)c1cccc(N(C)C)c1 |  |  | > 112 µM (not active) | > 112 µM (not active) |  |
| CC(=O)c1cccc(Nc2nc3ccccc3n3cnnc23)c1 | < 0.368 µM (active) | > 53 µM (inactive) |  |  | CC50 [10]: 43.9 µM (active); IC50 (H9c2): > 79 µM (inactive) |
| CCCCOC(=O)c1ccc(NC(=O)c2nn(C)cc2Br)cc1 |  |  |  |  | IC50 (cells): 12.2 µM (active) |
| CCCCn1c(SCN2C(=O)c3ccccc3C2=O)nc2cc(S(N)(=O)=O)ccc21 |  |  | > 112 µM (not active) | > 112 µM (not active) |  |
| Cc1cc(F)ccc1NC(=O)c1cc(S(=O)(=O)N2CCCC2)cn1C |  |  | > 112 µM (not active) | > 112 µM (not active) |  |
| O=C1N(c2ccc3c(c2)OCCO3)C(c2ccccc2)C1(F)F (stereo unspecified) |  |  |  |  | IC50 (cells): 7.43 µM (active) |
| CCOC(=O)c1csc(-c2snnc2C)n1 |  |  |  |  | IC50 (cells): 13.2 µM (active) |
| Cc1ccc(C(=O)N2CCN(c3ccc([N+](=O)[O-])c(NCc4ccco4)c3)CC2)cc1 |  |  | 41.3 µM (active) | > 112 µM (not active) |  |
| COc1cc2c(cc1OC)-c1cc(NC3CC3)nc(=O)n1CC2 |  |  | > 112 µM (not active) | 17.6 µM (active) |  |
| CCCCC1(CCCC)C(=O)N=C(Nc2cccc(C)c2)NC1=O | > 47.1 µM (inactive) | 3.98 µM (active) |  |  | EC50 [5]: 12.1 µM (active); AC50 (Cytochrome P450 2D6): 14.1 µM (inconclusive); EC50 [6]: 12.2 µM (active) |
| CN(Cc1cnccn1)C(=O)CC1C(=O)NCCN1Cc1cccc(Oc2ccccc2)c1 (stereo unspecified) |  |  | > 112 µM (not active) | > 112 µM (not active) |  |
| CCC(C)C(=O)Nc1nnc(SCC(=O)NC(C)(C)C)s1 (stereo unspecified) | > 47.1 µM (inactive) | > 53 µM (inactive) |  |  |  |
| Cc1ncsc1CCOC(=O)c1ccc([N+](=O)[O-])cc1 |  |  |  |  | IC50 (cells): 7.56 µM (active) |
| CCCN(CCC)S(=O)(=O)c1ccc(C(=O)Nc2nnc(CSC)o2)cc1 |  |  |  |  | EC50 [5]: 14.2 µM (active); EC50 [6]: 12.7 µM (active) |
| CC(=O)C1=C(C)N=C(S)NC1c1cc([N+](=O)[O-])ccc1O (stereo unspecified) | > 47.1 µM (inactive) | > 53 µM (inactive) |  |  |  |
| CCOC(=O)c1c(Nc2ccc(Cl)cc2)sc(/C=C2\C=Nc3ccccc32)c1O |  |  |  |  | EC50 [5]: 6.61 µM (active); EC50 [6]: 6.74 µM (active) |
| COc1cccc(C(=O)N/N=C/C(Br)=C/c2ccccc2)c1 |  |  |  |  | EC50 [5]: 6.24 µM (active); EC50 [6]: 6.47 µM (active) |
| CCc1nnc(N/N=C/c2ccc(-c3ccc([N+](=O)[O-])cc3)o2)n1N |  |  |  |  | IC50 (cells): 12.6 µM (active) |
| O=C(Nc1nccs1)c1ccccn1 |  |  |  |  | IC50 (cells): 9.47 µM (active) |
